Results from patent US20260317312A1, “ISOXAZOLIDINES AS RIPK1 INHIBITORS AND USE THEREOF” (GENZYME CORPORATION, priority 2023, published 2026).

Experiments:
[1] = target: T1, hRIPK1 (aa 1-375) fusion protein (Homo sapiens, UniProt Q13546); assay: Receptor-Interacting Protein Kinase 1 inhibition, ADP Glo assay (conversion of ATP to ADP due to autophosphorylation); type: biochemical; conditions: ATP 50 μM, 30 min preincubation, 240 min incubation, room temperature, DMSO 1%
T1 construct: hRIPK1 (aa 1-375) fusion protein
T1 sequence (Q13546 1-375): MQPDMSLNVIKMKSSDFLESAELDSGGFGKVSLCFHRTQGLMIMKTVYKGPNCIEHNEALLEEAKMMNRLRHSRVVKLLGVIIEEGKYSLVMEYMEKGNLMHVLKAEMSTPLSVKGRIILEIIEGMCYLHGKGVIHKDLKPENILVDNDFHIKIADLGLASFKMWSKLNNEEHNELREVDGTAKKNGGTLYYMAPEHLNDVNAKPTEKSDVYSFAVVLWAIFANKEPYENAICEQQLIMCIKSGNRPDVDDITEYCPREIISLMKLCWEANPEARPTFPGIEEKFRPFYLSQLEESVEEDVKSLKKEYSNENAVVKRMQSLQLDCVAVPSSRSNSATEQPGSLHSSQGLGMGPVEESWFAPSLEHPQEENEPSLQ
Procedure: The catalytic activity of RIPK1 was measured by monitoring the conversion of Adenosine triphosphate (ATP) to Adenosine diphosphate (ADP) due to autophosphorylation using an ADP-Glo kinase kit (Promega, catalog no. V9104).
In detail, 2 μl recombinantly produced hRIPK1 (aa 1-375) fusion protein (end concentration 3.6 μg/ml) and 2 μl compound (end concentration 33300-1.69 nM; DMSO end concentration 1%) were incubated for 30 minutes at room temperature and then 2 μl ATP (ADP Glo kit, end concentration 50 μM) were added. After another 240 minutes incubation at room temperature, 5 μl Promega ADP-Glo reagent I was added to quench the reaction and deplete unconsumed ATP. After an incubation period of 30 minutes, 10 μl Promega ADP-Glo detection reagent II was added resulting in conversion of ADP to ATP, which generates a light-reaction between luciferase and luciferin. Luminescence was quantified after 30 minutes with a Pherastar FS (BMG LABTECH, Ortenberg).
The adjustment was obtained by nonlinear regression using the Levenberg Marquardt algorithm.

[2] = system: U937 cells; assay: Cellular assay in U937 cells to measure activity of RIPK1-inhibitors on cell death (necroptosis); type: cell-based; conditions: overnight (18 to 24 hrs), 37° C., MTS readout
Text: Upon TNF-Receptor I ligation, Ser/Thr kinase RIPK1 is recruited to a transient receptor complex I. Upon modification of RIPK1 which promotes activation of RIPK1, complex lib can form, that involves recruitment of RIPK3 and MLKL (mixed lineage-kinase domain-like protein) which then translocates from the cytosol to the plasma membrane to execute cell death (Cai, Z. et al, Nat. Cell Biol. (2014)16:55-65).
Cell death was quantified in 96 well plates by determination of the amount of live cell using a CellTiter 96 Aqueous reagent (Promega), a calorimetric method to measure the number of live cells by reducing tetrazolium compound [3-(4,5-dimethylthiazol-2-yl)-5-(3-carboxymethoxyphenyl)-2-(4-sulfophenyl)-2H-tetrazolium, inner salt; MTS] into formazan. Absorbance of formazan was read at 490 nm. The inhibitory activity of the test compound was quantified in a concentration response curve (CRC) experiment.
Compounds were obtained as 10 mM stock solutions and were diluted 1 to 10 volumes with DMSO to yield a 1 mM solution. From this solution 2 μl were diluted with 998 μl growth medium. 100 μl of 2 μM compound solution was further diluted sequentially with a dilution factor of 2.5 by adding 150 μl growth medium. A total of 10 concentrations were tested ranging from 10 μM to 0.26 nM or from 1 μM to 0.07 nM.
U937 cells were cultured in RPM11640 Glutamax and 10% heat inactivated FBS. 50 μl cell suspension containing 1×10^6 cells/ml supplemented with 50 μM zVAD.fmk (Benzyloxycarbonyl-Val-Ala-Asp (Ome) fluoromethylketone) and 100 ng/ml recombinant human TNFα were dispensed in each well of a 96-well plate. 50 μl of compound dilutions (described in Cellular assay in U937 cells) were added and the cell suspension incubated overnight (18 to 24 hrs) at 37° C., 5% CO2 in a humidified atmosphere (95% rH). High (no compound) and low control (no TNFα, zVAD.fmk) were tested with 7 replicates; all compound concentrations were tested in duplicates on each experimental plate.
CellTiter 96 Aqueous reagent was mixed (100 μl PMS (phenazine methosulfate) solution/2 ml MTS (3-(4,5-[…])-5-(3-carboxymethoxyphenyl)-2-(4-sulfophenyl)-2H-tetrazolium, inner salt) solution) and 20 μl were added per well. After 4 hrs incubation at 37° C. (5% CO2 95% rH) optical density was measured at 490 nm on a microplate reader (Tecan Infinite M1000).
The % inhibition is expressed as percentage of the maximal inhibition value obtained in the absence of TNFα/zVAD.fmc.

[3] = Homo sapiens, U-937, TNFα/zVAD.fmk induced cell death (necroptosis)
[4] = TNFα/zVAD.fmk induced cell death (necroptosis)

IC50 [1] [µM] | Compound | IC50 [2, 3] [µM] | IC50 [2, 4] [µM]
0.132 | NC(=O)c1ccnc(C2CCC(C(=O)N3OCC[C@H]3c3cc(F)cc(F)c3)C2)c1 (single isomer, unassigned) [Compound 114] | 0.816 | 
0.053 | N#Cc1cc(F)cc([C@@H]2CCON2C(=O)C2CCC(COc3cc(C(N)=O)ncn3)C2)c1 (single isomer, unassigned) [Compound 115] |  | 0.842
0.02 | N#Cc1cc(F)cc([C@@H]2CCON2C(=O)C2CCCC(COc3cc(C(N)=O)ncn3)CC2)c1 (single isomer, unassigned) [Compound 128] |  | 0.691
0.02 | NC(=O)c1cc(OCC2CCC(C(=O)N3OCC[C@H]3c3cc(F)cc(F)c3)C2)ncn1 (single isomer, unassigned; stereoisomer 1) [Compound 118] |  | 0.137
0.017 | NC(=O)c1cc(OCC2CCCC(C(=O)N3OCC[C@H]3c3cc(F)cc(F)c3)CC2)ncn1 (single isomer, unassigned; stereoisomer 1) [Compound 122] |  | 0.03
0.025 | N#Cc1cc(F)cc([C@@H]2CCON2C(=O)C2CCCC(COc3cc(C(N)=O)ncn3)CC2)c1 (single isomer, unassigned; stereoisomer 1) [Compound 126] |  | 0.054
0.023 | N#Cc1cc(F)cc([C@@H]2CCON2C(=O)C2CCC(COc3cc(C(N)=O)ncn3)C2)c1 (single isomer, unassigned; stereoisomer 2) [Compound 116] |  | 0.377
0.029 | NC(=O)c1cc(OCC2CCC(C(=O)N3OCC[C@H]3c3cc(F)cc(F)c3)C2)ncn1 (single isomer, unassigned; stereoisomer 2) [Compound 119] |  | 0.388
0.014 | NC(=O)c1cc(OCC2CCCC(C(=O)N3OCC[C@H]3c3cc(F)cc(F)c3)CC2)ncn1 (single isomer, unassigned; stereoisomer 2) [Compound 123] |  | 0.024
0.017 | N#Cc1cc(F)cc([C@@H]2CCON2C(=O)C2CCCC(COc3cc(C(N)=O)ncn3)CC2)c1 (single isomer, unassigned; stereoisomer 2) [Compound 127] |  | 0.031
0.05 | N#Cc1cc(F)cc([C@@H]2CCON2C(=O)C2CCC(COc3cc(C(N)=O)ncn3)C2)c1 (single isomer, unassigned; stereoisomer 3) [Compound 117] |  | 0.675
0.032 | NC(=O)c1cc(OCC2CCC(C(=O)N3OCC[C@H]3c3cc(F)cc(F)c3)C2)ncn1 (single isomer, unassigned; stereoisomer 3) [Compound 120] |  | 0.336
0.021 | NC(=O)c1cc(OCC2CCCC(C(=O)N3OCC[C@H]3c3cc(F)cc(F)c3)CC2)ncn1 (single isomer, unassigned; stereoisomer 3) [Compound 124] |  | 0.081
0.03 | NC(=O)c1cc(OCC2CCC(C(=O)N3OCC[C@H]3c3cc(F)cc(F)c3)C2)ncn1 (single isomer, unassigned; stereoisomer 4) [Compound 121] |  | 0.755
0.039 | NC(=O)c1cc(OCC2CCCC(C(=O)N3OCC[C@H]3c3cc(F)cc(F)c3)CC2)ncn1 (single isomer, unassigned; stereoisomer 4) [Compound 125] |  | 0.347
0.019 | NC(=O)c1ccnc(N[C@H]2C[C@@H](C(=O)N3OCC[C@H]3c3cc(F)cc(F)c3)C2)n1 [Compound 1, cis-2-((3-((S)-3-(3,5-difluorophenyl)isoxazolidine-2-carbonyl)cyclobutyl)amino)pyrimidine-4-carboxamide] | 0.034 | 
0.022 | N#Cc1ccnc(N[C@H]2C[C@@H](C(=O)N3OCC[C@H]3c3cc(F)cc(F)c3)C2)n1 [Compound 2, cis-2-((3-((S)-3-(3,5-difluorophenyl)isoxazolidine-2-carbonyl)cyclobutyl)amino)pyrimidine-4-carbonitrile] | 0.101 | 
0.047 | COC(=O)c1ccnc(N[C@H]2C[C@@H](C(=O)N3OCC[C@H]3c3cc(F)cc(F)c3)C2)n1 [Compound 3, methyl cis-2-((3-((S)-3-(3,5-difluorophenyl)isoxazolidine-2-carbonyl)cyclobutyl)amino)pyrimidine-4-carboxylate] | 0.536 | 
0.09 | NC(=O)c1ccnc(N[C@H]2C[C@H](C(=O)N3OCC[C@H]3c3cc(F)cc(F)c3)C2)n1 [Compound 4, trans-2-((3-((S)-3-(3,5-difluorophenyl)isoxazolidine-2-carbonyl)cyclobutyl)amino)pyrimidine-4-carboxamide] | 0.36 | 
0.038 | C[C@]1(C(=O)N2OCC[C@H]2c2cc(F)cc(F)c2)C[C@@H](Nc2nccc(C#N)n2)C1 [Compound 5, cis-2-((3-((S)-3-(3,5-difluorophenyl)isoxazolidine-2-carbonyl)-3-methylcyclobutyl)amino)pyrimidine-4-carbonitrile] | 0.075 | 
0.021 | C[C@]1(C(=O)N2OCC[C@H]2c2cc(F)cc(F)c2)C[C@@H](Nc2nccc(C(N)=O)n2)C1 [Compound 6, cis-2-((3-((S)-3-(3,5-difluorophenyl)isoxazolidine-2-carbonyl)-3-methylcyclobutyl)amino)pyrimidine-4-carboxamide] | 0.006 | 
0.023 | C[C@]1(C(=O)N2OCC[C@H]2c2cncc(C#N)c2)C[C@@H](Nc2nccc(C(N)=O)n2)C1 [Compound 7, cis-2-((3-((S)-3-(5-cyanopyridin-3-yl)isoxazolidine-2-carbonyl)-3-methylcyclobutyl)amino)pyrimidine-4-carboxamide] | 0.336 | 
0.025 | CCOC(=O)c1ncnc(N[C@H]2C[C@@](C)(C(=O)N3OCC[C@H]3c3cc(F)cc(F)c3)C2)c1F [Compound 8, ethyl cis-6-((3-((S)-3-(3,5-difluorophenyl)isoxazolidine-2-carbonyl)-3-methylcyclobutyl)amino)-5-fluoropyrimidine-4-carboxylate] | 0.196 | 
0.366 | CCOC(=O)c1ncnc(Cl)c1N[C@H]1C[C@@](C)(C(=O)N2OCC[C@H]2c2cc(F)cc(F)c2)C1 [Compound 9, ethyl cis-6-chloro-5-((3-((S)-3-(3,5-difluorophenyl)isoxazolidine-2-carbonyl)-3-methylcyclobutyl)amino)pyrimidine-4-carboxylate] | 0.757 | 
0.162 | N#Cc1cc(F)cc([C@@H]2CCON2C(=O)[C@H]2CC[C@@H](Nc3cc(C#N)ncn3)CC2)c1 [Compound 28, cis-6-((4-((S)-3-(3-cyano-5-fluorophenyl)isoxazolidine-2-carbonyl)cyclohexyl)amino)pyrimidine-4-carbonitrile] |  | 
